Laboratory results published in patent US8153679B2, “Radiolabelled inhibitors of the glycine 1 transporter” (Hoffmann-La Roche Inc., priority 2008, dated 2012).

Legend:
[1] = molecular target: T1, GlyT1 transporter (Mus musculus, UniProt P28571); test: GlyT1 transporter inhibition in vitro (test method of WO2006/082001); format: cell-based; details: unlabelled compounds
T1 sequence (P28571 1-651 isoform P28571-2): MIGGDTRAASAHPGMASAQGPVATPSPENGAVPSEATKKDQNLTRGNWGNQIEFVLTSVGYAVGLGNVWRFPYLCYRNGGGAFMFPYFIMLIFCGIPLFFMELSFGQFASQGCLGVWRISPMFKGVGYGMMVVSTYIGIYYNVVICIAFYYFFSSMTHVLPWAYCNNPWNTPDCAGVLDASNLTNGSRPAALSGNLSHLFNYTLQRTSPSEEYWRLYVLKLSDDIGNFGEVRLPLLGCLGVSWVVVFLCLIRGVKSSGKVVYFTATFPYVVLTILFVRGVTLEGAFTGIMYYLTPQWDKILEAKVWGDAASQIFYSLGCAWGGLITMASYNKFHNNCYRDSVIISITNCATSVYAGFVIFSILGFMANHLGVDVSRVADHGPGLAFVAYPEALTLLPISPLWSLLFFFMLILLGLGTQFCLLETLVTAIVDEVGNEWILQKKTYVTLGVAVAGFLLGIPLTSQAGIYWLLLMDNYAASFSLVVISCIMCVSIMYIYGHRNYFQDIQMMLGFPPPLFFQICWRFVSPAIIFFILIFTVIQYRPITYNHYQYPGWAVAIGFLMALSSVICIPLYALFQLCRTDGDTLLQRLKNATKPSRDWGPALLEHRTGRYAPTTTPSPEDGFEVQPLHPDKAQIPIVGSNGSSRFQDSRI
Source text: The test method is described in WO2006/082001.

[2] = tested on: glycine transporter 1 (GlyT1); test: In vivo PET imaging in the baboon; design: species or system baboon (papio anubis); details: intravenous 1 minute bolus, PET 0 to 90 minutes
Method: 1) PET imaging with [^11C-][2-Isopropoxy-5-methanesulfonyl-phenyl)-[5-(tetrahydro-pyran-4-yl)-1,3-dihydro-isoindol-2-yl]-methanone] and [^11C]-5-Methanesulfonyl-2-((S)-2,2,2-trifluoro-1-methyl-ethoxy)-phenyl]-[5-(tetrahydro-pyran-4-yl)-1,3-dihydro-isoindol-2-yl]-methanone
(§1) The experiments described below were carried out in male baboons (papio anubis). Animals were fasted for 12 hours prior to the PET study. Baboons were initially sedated intramuscularly with Ketamine hydrochloride with restraint dosages of 5-7 mg/kg to achieve a light plane of anesthesia and then maintained on continuous Propofol intravenous infusion @ […] (DIPRIVAN® Injectable Emulsion). Circulatory volume was maintained by infusion of isotonic saline. A femoral arterial catheter was inserted for blood sampling. Physiological vital signs including heart rate, ECG, blood pressure (Spacelabs Monitor, Issaquah, Wash., USA) and oxygen saturation (Nellcor OxiMax® N-600™ Pulse Oximeter, Pleasanton, Calif., USA) were continuously monitored throughout the study. The animal was positioned in an ECAT HRRT® brain PET scanner (High Resolution Research Tomograph, CPS Innovations, Inc., Knoxville, Tenn.). The head of the animal was fitted with a thermoplastic mask that was attached to a head holder for reproducible fixation. […]

[3] = molecular target: T2, GlyT1 transporter (Rattus norvegicus, UniProt P28572); test: Autoradiographic studies in rat brain sections; format: binding; details: for distribution of the binding sites in rat brain sections: radiotracer 1 nM, 60 min, 37° C., high densities in thalamus, brainstem, pons, medulla oblungata, cerebellum, lower in striatum, cortex, hippocampus
T2 construct: Ten μm-thick sagittal sections were cut in a Cryostat and thaw-mounted on adhesion glass slides; from tissue; host or cells: rat brain, sagittal sections (male Wistar rats)
T2 sequence (P28572 1-638): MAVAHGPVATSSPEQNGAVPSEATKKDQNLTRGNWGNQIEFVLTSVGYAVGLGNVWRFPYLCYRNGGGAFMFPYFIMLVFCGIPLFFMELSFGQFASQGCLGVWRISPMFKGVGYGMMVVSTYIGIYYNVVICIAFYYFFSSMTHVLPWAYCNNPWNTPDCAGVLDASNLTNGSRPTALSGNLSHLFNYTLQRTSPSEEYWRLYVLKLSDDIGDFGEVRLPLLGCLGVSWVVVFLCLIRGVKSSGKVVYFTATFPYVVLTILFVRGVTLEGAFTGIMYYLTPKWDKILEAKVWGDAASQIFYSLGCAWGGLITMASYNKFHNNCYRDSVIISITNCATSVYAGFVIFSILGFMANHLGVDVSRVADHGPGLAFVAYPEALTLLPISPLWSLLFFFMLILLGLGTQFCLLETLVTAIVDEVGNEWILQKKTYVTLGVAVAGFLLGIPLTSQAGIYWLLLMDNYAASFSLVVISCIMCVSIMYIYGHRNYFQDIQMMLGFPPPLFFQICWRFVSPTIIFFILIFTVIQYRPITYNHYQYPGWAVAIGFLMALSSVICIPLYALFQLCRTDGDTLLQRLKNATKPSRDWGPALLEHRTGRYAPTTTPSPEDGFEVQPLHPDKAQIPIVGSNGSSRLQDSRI
Source text: Autoradiographic Studies in Rat Brain
The distribution of the binding sites of [^3H][5-Methanesulfonyl-2-((S)-2,2,2-trifluoro-1-methyl-ethoxy)-phenyl]-[5-(tetrahydro-pyran-4-yl)-1,3-dihydro-isoindol-2-yl]-methanone and [^3H][2-Isopropoxy-5-methanesulfonyl-phenyl)-[5-(tetrahydro-pyran-4-yl)-1,3-dihydro-isoindol-2-yl]-methanone] was investigated in the rat brain.
Male Wistar rats were used for these experiments. Rats were sacrificed; their brains were rapidly removed, frozen in dry ice powder. Ten μm-thick sagittal sections were cut in a Cryostat and thaw-mounted on adhesion glass slides. Brain sections were first incubated for 10 min. in Ringer buffer (NaCl 120 mM, KCl 5 mM, CaCl2 2 mM, MgCl2 1 mM, Tris-HCl 50 mM pH 7.4) at 37° C. and then for 60 min. in Ringer buffer at 37° C. containing either [^3H]5-Methanesulfonyl-2-((S)-2,2,2-trifluoro-1-methyl-ethoxy)-phenyl]-[5-(tetrahydro-pyran-4-yl)-1,3-dihydro-isoindol-2-yl-methanone or [^3H]-[2-Isopropoxy-5-methanesulfonyl-phenyl)-[5-(tetrahydro-pyran-4-yl)-1,3-dihydro-isoindol-2-yl]-methanone] at concentration 1 nM. For the evaluation of the non-specific-binding (NSB) of the radiotracer an additional group of sections was incubated with Ringer buffer containing the radiotracer and the reference GlyT1 inhibitor Org 24598 at the concentration 10 μM (60 in at 37° C.). At the end of the incubation, sections were rinsed 2×5 min. and 1×15 min. in ice-cold (4° C.) Ringer buffer and then rapidly dipped three times in distilled water at 4° C. Slide-mounted brain sections were dried under a flow of cold air and exposed together with [^3H]-microscale to a Fuji Imaging plate for 5 days. […] The total amount of radiotracer bound to the brain areas of interest (TB) were measured using the MCID image analysis program and expressed as fmol of bound radiotracer/mg of protein. The amount of [^3H]5-Methanesulfonyl-2-((S)-2,2,2-trifluoro-1-methyl-ethoxy)-phenyl]-[5-(tetrahydro-pyran-4-yl)-1,3-dihydro-isoindol-2-yl]-methanone specifically bound to the GlyT1 carrier (SB) was calculated according to the formula: SB=TB−NSB.

[4] = tested on: GlyT1 transporter; test: PET imaging with pharmacological challenges (blocking of radiotracer uptake); format: in vivo, baboon (papio anubis); details: intravenous infusion 0.2 mg/kg, after 10 min 0.5 mg/kg for remainder 100 min; started 20 min before radiotracer
Method: as §1, with “fixation. A 6 min transmission scan with a 1 mCi Cs-137 point source was initially done for attenuation correction.” for “fixation.”

[5] = Preliminary pharmacokinetic experiments and modeling (blocker infusion); format: in vivo, baboon; details: intravenous infusion 0.2 mg/kg then 0.5 mg/kg
Method: Each animal received two sequential administrations of the radiotracer on the same day. The first administration of radiotracer was used to determine radiotracer baseline uptake. Following the baseline scan, the baboon received an intravenous administration of unlabeled [5-methanesulfonyl-2-((S)-2,2,2-trifluoro-1-methyl-ethoxy)-phenyl]-[5-(tetrahydro-pyran-4-yl)-1,3-dihydro-isoindol-2-yl]-methanone (blocker). The blocker infusion started 20 min before (the second) radiotracer injection. The blocker was first infused at dose=0.2 mg/kg. After 10 min, the flow rate was changed to deliver 0.5 mg/kg for the remainder 100 min of the study.

With CC(C)Oc1ccc(S(C)(=O)=O)cc1C(=O)N1Cc2ccc(C3CCOCC3)cc2C1 [(2-isopropoxy-5-methanesulfonyl-phenyl)-[5-(tetrahydro-pyran-4-yl)-1,3-dihydro-isoindol-2-yl]-methanone] the IC50 [1] was 14 nM.
For C[C@H](Oc1ccc(S([11CH3])(=O)=O)cc1C(=O)N1Cc2ccc(C3CCOCC3)cc2C1)C(F)(F)F [Example 2, [^11C-methyl]-[5-Methanesulfonyl-2-((S)-2,2,2-trifluoro-1-methyl-ethoxy)-phenyl]-[5-(tetrahydro-pyran-4-yl)-1,3-dihydro-isoindol-2-yl]-methanone], the “brain uptake of radiotracer” value [2] was “rapidly taken up in multiple brain areas”.
In the case of CC(C)Oc1ccc(S([11CH3])(=O)=O)cc1C(=O)N1Cc2ccc(C3CCOCC3)cc2C1 [Example 4, [^11C-methyl]-(2-Isopropoxy-5-methanesulfonyl-phenyl)-[5-(tetrahydro-pyran-4-yl)-1,3-dihydro-isoindol-2-yl]-methanone], the “brain uptake of radiotracer” value [2] is reported as “rapidly taken up in multiple brain areas”.
In the case of CN(CC[C@@H](Oc1ccc(C(F)(F)F)cc1)c1ccccc1)CC(=O)O [Org 24598], the “effect of co-incubation on binding of both [3H] radiotracers to rat brain sections” value ([3]; high concentrations of inhibitor (Org 24598 10 μM), radiotracers 1 nM) is reported as “completely abolished binding”.
For C[C@H](Oc1ccc(S(C)(=O)=O)cc1C(=O)N1Cc2ccc(C3CCOCC3)cc2C1)C(F)(F)F [[5-methanesulfonyl-2-((S)-2,2,2-trifluoro-1-methyl-ethoxy)-phenyl]-[5-(tetrahydro-pyran-4-yl)-1,3-dihydro-isoindol-2-yl]-methanone], the “effect of pretreatment with cold blocker on specific uptake of both [11C] radiotracers in brain” value [4] was “completely blocked the specific uptake”, the “plasma levels during the PET scan time interval” value [5] was “constant plasma levels” and the IC50 [1] was 28 nM.
For “[3H-methyl]-[5-Methanesulfonyl-2-((S)-2,2,2-trifluoro-1-methyl-ethoxy)-phenyl]-[5-(tetrahydro-pyran-4-yl)-1,3-dihydro-isoindol-2-yl]-methanone [Example 1]”, the “distribution of the binding sites in rat brain sections” value [3] was “corresponded to the known distribution of the GlyT1 transporter”.
For “[^3H-methyl]-(2-Isopropoxy-5-methanesulfonyl-phenyl)-[5-(tetrahydro-pyran-4-yl)-1,3-dihydro-isoindol-2-yl]-methanone [Example 3]”, the “distribution of the binding sites in rat brain sections” value [3] was “corresponded to the known distribution of the GlyT1 transporter”.
